In US12486253B2, “Therapeutics for the degradation of mutant BRAF” (C4 THERAPEUTICS, INC., priority 2021, dated 2025):

Target: BRAF V600E (Homo sapiens, UniProt P15056, V600E)
Assay: HiBiT cellular BRAF^V600E degradation assay
Type: cell-based
Conditions: A375.10 cells, 24 h; for DC50: concentration at which 50% of total cellular BRAF^V600E is degraded; for Emax: residual protein remaining in the cell, read-out: HiBit 24 h Emax

Chain of BRAF V600E (P15056 whole entry V600E): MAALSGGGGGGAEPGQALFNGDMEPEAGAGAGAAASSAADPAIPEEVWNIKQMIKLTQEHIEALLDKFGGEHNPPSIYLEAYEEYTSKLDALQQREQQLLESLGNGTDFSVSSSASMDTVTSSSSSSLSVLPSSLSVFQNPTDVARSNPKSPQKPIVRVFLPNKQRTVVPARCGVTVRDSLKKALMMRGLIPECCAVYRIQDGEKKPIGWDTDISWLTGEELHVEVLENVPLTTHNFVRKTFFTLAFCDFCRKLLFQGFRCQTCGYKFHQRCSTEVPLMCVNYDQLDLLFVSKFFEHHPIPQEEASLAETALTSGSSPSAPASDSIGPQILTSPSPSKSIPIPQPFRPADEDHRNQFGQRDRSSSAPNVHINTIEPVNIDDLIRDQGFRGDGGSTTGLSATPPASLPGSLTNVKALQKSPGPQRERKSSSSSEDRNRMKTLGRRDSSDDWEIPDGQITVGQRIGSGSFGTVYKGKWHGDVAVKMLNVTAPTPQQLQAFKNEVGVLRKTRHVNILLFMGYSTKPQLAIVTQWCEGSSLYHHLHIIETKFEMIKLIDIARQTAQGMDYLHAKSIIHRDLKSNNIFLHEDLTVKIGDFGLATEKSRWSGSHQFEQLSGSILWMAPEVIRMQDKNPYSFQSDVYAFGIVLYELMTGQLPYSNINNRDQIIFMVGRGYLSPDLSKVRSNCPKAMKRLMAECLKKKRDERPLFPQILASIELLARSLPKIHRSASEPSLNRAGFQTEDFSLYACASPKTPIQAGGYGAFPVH

Row | SMILES | DC50 | Emax
1 | Cn1nc(N2CCC(=O)NC2=O)c2cc(F)c(N3CCC(O)(CC(=O)N4CCC5(CC4)C[C@@H](n4cnc6ccc(Oc7c(F)ccc(NS(=O)(=O)N8CC[C@@H](F)C8)c7C#N)cc6c4=O)CO5)CC3)cc21 [Example 190, (3R)—N-[2-cyano-3-[3-[(3R)-8-[2-[1-[3-(2,4-dioxo-1,3-diazinan-1-yl)-5-fluoro-1-methylindazol-6-yl]-4-hydroxypiperidin-4-yl]acetyl]-1-oxa-8-azaspiro[4.5]decan-3-yl]-4-oxoquinazolin-6-yl]oxy-4-fluorophenyl]-3-fluoropyrrolidine-1-sulfonamide] | 0.0393 µM | 24.7%
2 | Cn1nc(N2CCC(=O)NC2=O)c2cc(F)c(N3CCC(O)(CC(=O)N4CCC5(CC4)C[C@@H](n4cnc6ccc(Oc7c(F)ccc(NS(=O)(=O)C8CCCC8)c7C#N)cc6c4=O)CO5)CC3)cc21 [Example 191, N-[2-cyano-3-[3-[(3R)-8-[2-[1-[3-(2,4-dioxo-1,3-diazinan-1-yl)-5-fluoro-1-methylindazol-6-yl]-4-hydroxypiperidin-4-yl]acetyl]-1-oxa-8-azaspiro[4.5]decan-3-yl]-4-oxoquinazolin-6-yl]oxy-4-fluorophenyl]cyclopentanesulfonamide] | 0.0271 µM | 26.8%
3 | Cn1nc(N2CCC(=O)NC2=O)c2cc(F)c(N3CCC(O)(CC(=O)N4CCC5(CC4)C[C@@H](n4cnc6ccc(Oc7c(F)ccc(NS(=O)(=O)C8CC8)c7C#N)cc6c4=O)CO5)CC3)cc21 [Example 192, N-[2-cyano-3-[3-[(3R)-8-[2-[1-[3-(2,4-dioxo-1,3-diazinan-1-yl)-5-fluoro-1-methylindazol-6-yl]-4-hydroxypiperidin-4-yl]acetyl]-1-oxa-8-azaspiro[4.5]decan-3-yl]-4-oxoquinazolin-6-yl]oxy-4-fluorophenyl]cyclopropanesulfonamide] | 0.0317 µM | 32.2%
4 | COC1CN(S(=O)(=O)Nc2ccc(F)c(Oc3ccc4ncn([C@H]5COC6(CCN(C(=O)CC7(O)CCN(c8cc9c(cc8F)c(N8CCC(=O)NC8=O)nn9C)CC7)CC6)C5)c(=O)c4c3)c2C#N)C1 [Example 193, N-[2-cyano-3-[3-[(3R)-8-[2-[1-[3-(2,4-dioxo-1,3-diazinan-1-yl)-5-fluoro-1-methylindazol-6-yl]-4-hydroxypiperidin-4-yl]acetyl]-1-oxa-8-azaspiro[4.5]decan-3-yl]-4-oxoquinazolin-6-yl]oxy-4-fluorophenyl]-3-methoxyazetidine-1-sulfonamide] | 0.142 µM | 33.8%
5 | Cn1nc(N2CCC(=O)NC2=O)c2cc(F)c(N3CCC(O)(CC(=O)N4CCC5(CC4)C[C@@H](n4cnc6ccc(Oc7c(F)ccc(NS(=O)(=O)N8CC9CC9C8)c7C#N)cc6c4=O)CO5)CC3)cc21 (stereo partly drawn) [Example 194, N-[2-cyano-3-[3-[(3R)-8-[2-[1-[3-(2,4-dioxo-1,3-diazinan-1-yl)-5-fluoro-1-methylindazol-6-yl]-4-hydroxypiperidin-4-yl]acetyl]-1-oxa-8-azaspiro[4.5]decan-3-yl]-4-oxoquinazolin-6-yl]oxy-4-fluorophenyl]-3-azabicyclo[3.1.0]hexane-3-sulfonamide] | 0.0428 µM | 26.2%
6 | Cn1nc(N2CCC(=O)NC2=O)c2cc(F)c(N3CCC(O)(CC(=O)N4CCC5(CC4)C[C@@H](n4cnc6ccc(Oc7c(F)ccc(NS(=O)(=O)N8CCCC8)c7C#N)cc6c4=O)CO5)CC3)cc21 [Example 195, N-[2-cyano-3-[3-[(3R)-8-[2-[1-[3-(2,4-dioxo-1,3-diazinan-1-yl)-5-fluoro-1-methylindazol-6-yl]-4-hydroxypiperidin-4-yl]acetyl]-1-oxa-8-azaspiro[4.5]decan-3-yl]-4-oxoquinazolin-6-yl]oxy-4-fluorophenyl]pyrrolidine-1-sulfonamide] | 0.016 µM | 26.3%
7 | CCN(C)S(=O)(=O)Nc1ccc(F)c(Oc2ccc3ncn([C@H]4COC5(CCC(N6CCC(c7cc8c(cc7F)c(N7CCC(=O)NC7=O)nn8C)CC6)CC5)C4)c(=O)c3c2)c1C#N (stereo partly drawn) [Example 200, 6-[2-cyano-3-[[ethyl(methyl)sulfamoyl]amino]-6-fluorophenoxy]-3-[(3R)-8-[4-[3-(2,4-dioxo-1,3-diazinan-1-yl)-5-fluoro-1-methylindazol-6-yl]piperidin-1-yl]-1-oxaspiro[4.5]decan-3-yl]-4-oxoquinazoline] | 0.0159 µM | 26.9%
8 | CCN(C)S(=O)(=O)Nc1ccc(F)c(Oc2ccc3ncn([C@H]4COC5(CCN(C(=O)CC6(F)CCN(c7cc8c(cc7F)c(N7CCC(=O)NC7=O)nn8C)CC6)CC5)C4)c(=O)c3c2)c1C#N [Example 201, (3R)-3-[6-[2-cyano-3-[[ethyl(methyl)sulfamoyl]amino]-6-fluorophenoxy]-4-oxoquinazolin-3-yl]-8-[2-[1-[3-(2,4-dioxo-1,3-diazinan-1-yl)-5-fluoro-1-methylindazol-6-yl]-4-fluoropiperidin-4-yl]acetyl]-1-oxa-8-azaspiro[4.5]decane] | 0.0425 µM | 27.2%
9 | CCN(C)S(=O)(=O)Nc1ccc(F)c(Oc2ccc3ncc(-n4cc(N5CCCN(C(=O)CN6CCC(c7ccc(NC8CCC(=O)NC8=O)cc7F)CC6)CC5)cn4)nc3c2)c1C#N (stereo not shown) [Example 215, 7-[2-cyano-3-[[ethyl(methyl)sulfamoyl]amino]-6-fluorophenoxy]-2-[4-[4-[2-[4-[4-[(2,6-dioxopiperidin-3-yl)amino]-2-fluorophenyl]piperidin-1-yl]acetyl]-1,4-diazepan-1-yl]pyrazol-1-yl]quinoxaline] | 0.0186 µM | 7.82%
10 | CCN(C)S(=O)(=O)Nc1ccc(F)c(Oc2ccc3ncc(OCC4CCN(C(=O)CN5CCC(c6ccc(NC7CCC(=O)NC7=O)cc6F)CC5)CC4)nc3c2)c1C#N (stereo not shown) [Example 216, 7-[2-cyano-3-[[ethyl(methyl)sulfamoyl]amino]-6-fluorophenoxy]-2-[[1-[2-[4-[4-[(2,6-dioxopiperidin-3-yl)amino]-2-fluorophenyl]piperidin-1-yl]acetyl]piperidin-4-yl]methoxy]quinoxaline] | 0.0252 µM | 10.1%
11 | CCN(C)S(=O)(=O)Nc1ccc(F)c(Oc2ccc3ncc(N4CCC5(CCN(C(=O)CN6CCC(c7ccc(NC8CCC(=O)NC8=O)cc7F)CC6)CC5)C4)nc3c2)c1C#N (stereo not shown) [Example 219, 7-[2-cyano-3-[[ethyl(methyl)sulfamoyl]amino]-6-fluorophenoxy]-2-[8-[2-[4-[4-[(2,6-dioxopiperidin-3-yl)amino]-2-fluorophenyl]piperidin-1-yl]acetyl]-2,8-diazaspiro[4.5]decan-2-yl]quinoxaline] | 0.0217 µM | 13.9%

Second part, the compound after the results:

Row | DC50 | Emax | SMILES
12 | 9.99 µM | 89.4% | Cn1nc(N2CCC(=O)NC2=O)c2cc(F)c(N3CCC(O)(CC(=O)N4CCC5(CC4)C[C@@H](n4cnc6ccc(Oc7c(F)ccc(NS(=O)(=O)N8CCC8)c7C#N)cc6c4=O)CO5)CC3)cc21 [Example 196, N-[2-cyano-3-[3-[(3R)-8-[2-[1-[3-(2,4-dioxo-1,3-diazinan-1-yl)-5-fluoro-1-methylindazol-6-yl]-4-hydroxypiperidin-4-yl]acetyl]-1-oxa-8-azaspiro[4.5]decan-3-yl]-4-oxoquinazolin-6-yl]oxy-4-fluorophenyl]azetidine-1-sulfonamide]
13 | 0.0257 µM | 27.8% | CN(C1CC1)S(=O)(=O)Nc1ccc(F)c(Oc2ccc3ncn([C@H]4COC5(CCN(C(=O)CC6(O)CCN(c7cc8c(cc7F)c(N7CCC(=O)NC7=O)nn8C)CC6)CC5)C4)c(=O)c3c2)c1C#N [Example 197, (3R)-3-[6-[2-cyano-3-[[cyclopropyl(methyl)sulfamoyl]amino]-6-fluorophenoxy]-4-oxoquinazolin-3-yl]-8-[2-[1-[3-(2,4-dioxo-1,3-diazinan-1-yl)-5-fluoro-1-methylindazol-6-yl]-4-hydroxypiperidin-4-yl]acetyl]-1-oxa-8-azaspiro[4.5]decane]
14 | 0.0287 µM | 28.1% | Cn1nc(N2CCC(=O)NC2=O)c2cc(F)c(N3CCC(O)(CC(=O)N4CCC5(CC4)C[C@@H](n4cnc6ccc(Oc7c(F)ccc(NS(=O)(=O)C8CCC8)c7C#N)cc6c4=O)CO5)CC3)cc21 [Example 198, N-[2-cyano-3-[3-[(3R)-8-[2-[1-[3-(2,4-dioxo-1,3-diazinan-1-yl)-5-fluoro-1-methylindazol-6-yl]-4-hydroxypiperidin-4-yl]acetyl]-1-oxa-8-azaspiro[4.5]decan-3-yl]-4-oxoquinazolin-6-yl]oxy-4-fluorophenyl]cyclobutanesulfonamide]
15 | 0.0217 µM | 27.9% | CCN(C)S(=O)(=O)Nc1ccc(F)c(Oc2ccc3ncn(-c4cnc(N5CCN(C(=O)CC6(O)CCN(c7cc8c(cc7F)c(N7CCC(=O)NC7=O)nn8C)CC6)CC5)nc4)c(=O)c3c2)c1C#N [Example 199, 6-[2-cyano-3-[[ethyl(methyl)sulfamoyl]amino]-6-fluorophenoxy]-3-[2-[4-[2-[1-[3-(2,4-dioxo-1,3-diazinan-1-yl)-5-fluoro-1-methylindazol-6-yl]-4-hydroxypiperidin-4-yl]acetyl]piperazin-1-yl]pyrimidin-5-yl]-4-oxoquinazoline]
16 | 0.018 µM | 8.83% | CCN(C)S(=O)(=O)Nc1ccc(F)c(Oc2ccc3ncc(OC[C@@H]4[C@H]5CN(C(=O)CN6CCC(c7ccc(NC8CCC(=O)NC8=O)cc7F)CC6)C[C@@H]45)nc3c2)c1C#N (stereo partly drawn) [Example 217, 7-[2-cyano-3-[[ethyl(methyl)sulfamoyl]amino]-6-fluorophenoxy]-2-[[(1R,5S)-3-[2-[4-[4-[(2,6-dioxopiperidin-3-yl)amino]-2-fluorophenyl]piperidin-1-yl]acetyl]-3-azabicyclo[3.1.0]hexan-6-yl]methoxy]quinoxaline]
17 | 0.0114 µM | 6.96% | CCN(C)S(=O)(=O)Nc1ccc(F)c(Oc2ccc3ncc(C4COC5(CCN(C(=O)CN6CCC(c7ccc(NC8CCC(=O)NC8=O)cc7F)CC6)CC5)C4)cc3c2)c1C#N (stereo not shown) [Example 218, 3-[6-[2-cyano-3-[[ethyl(methyl)sulfamoyl]amino]-6-fluorophenoxy]quinolin-3-yl]-8-[2-[4-[4-[(2,6-dioxopiperidin-3-yl)amino]-2-fluorophenyl]piperidin-1-yl]acetyl]-1-oxa-8-azaspiro[4.5]decane]
